{"source": "patent US20180360072A1", "about": "(priority 2017, published 2018)", "key": {"[1]": {"test_system": "E. maxima and C. perfringens", "format": "in vivo, broiler chicks"}, "[2]": {"test_system": "C. perfringens", "experiment": "microbe, parasite or virus in culture", "format": "cell-based, Clostridium perfringens"}, "[3]": {"test_system": "E. maxima and C. perfringens", "format": "in vivo, broiler chicks", "remark": "listed apart in the source"}, "[4]": {"experiment": "Separate growth experiment, 26 days: body weight gain and ileal fat and nitrogen levels", "format": "in vivo, broiler chicks", "conditions": "1.5 g/kg feed DCA diet for 26 days vs basal diet", "description": "In a separate experiment, birds were fed diet supplementing with DCA at 1.5 g/kg feed. After 26 days the birds were weighed and sacrificed and ileal content were collected. The dry matter (DM), crude fat, and nitrogen levels in the ileal content was analyzed at the Central Analytical Lab at Department of Poultry Science at University of Arkansas at Fayetteville, Ark."}, "[5]": {"test_system": "C. perfringens 16S, Cpb and Virx mRNA", "design": "species or system broiler chicks", "conditions": "in vivo"}, "[6]": {"test_system": "C. jejuni strain 81-176", "experiment": "C. jejuni 81-176 cecal colonization in broiler chicks fed DCA diet", "format": "in vivo", "conditions": "1.5 g/kg DCA diet, 10^9 CFU/chick C. jejuni 81-176 at 14 days of age"}, "[7]": {"test_system": "Ptgs2 and Atp6vg1 mRNA", "experiment": "Host response gene mRNA accumulation in ileal tissue (real time PCR)", "format": "in vivo", "conditions": "DCA diet; chicken ileal tissue; normalized to Gapdh", "description": "Total RNA from chicken intestinal tissue was extracted using TRIzol (Invitrogen, Carlsbad, Calif.). Briefly, after bead beater disruption in TRIzol and chloroform and centrifugation, supernatant was precipitated with isopropanol. The pelleted RNA was washed once with 75% ethanol. The final RNA was dissolved in DNase/RNase free water and stored in −80° C. freezer. Complementary DNA was prepared using M-MLV (NEB).\nMessenger RNA levels of proinflammatory genes were determined using SYBR Green PCR Master Mix (Bio-Rad, Hercules, Calif.) on an Bio-Rad 384-well Real-Time PCR System and normalized to Gapdh. The polymerase chain reactions were performed on 384-well real time PCR machine (Bio-Rad, Hercules, Calif.) according to the manufacturer's recommendation. […]"}, "[8]": {"test_system": "Infγ, Tnfα and Mmp9 mRNA", "design": "species or system broiler chicks", "conditions": "in vivo"}, "[9]": {"test_system": "C. jejuni", "experiment": "C. jejuni in vitro growth inhibition in BHI broth (OD600)", "format": "cell-based, Campylobacter jejuni", "conditions": "1 mM, 48 hours in BHI broth; for C. jejuni growth, OD600: microaerobic, without bile acid 0.153", "description": "To evaluate bile acids on C. jejuni growth, the bacterium was inoculated in BHI broth. The medium was also added final concentration of 0, 0.2, 0.5, and 1 mM DCA, and 1 mM TCA and CA. After 48-hour culture under microaerobic condition, the bacterium growth was measured at OD600."}, "[10]": {"test_system": "C. perfringens", "format": "in vivo, broiler chicks", "conditions": "DCA birds vs NE control birds; 16S rDNA real time PCR"}, "[11]": {"experiment": "Broiler growth performance (body weight gain, feed conversion ratio) on DCA diet", "format": "in vivo, broiler chicks"}}, "note": "Where two headings read alike, the source gives them in different places.", "data": [{"smiles": "C[C@H](CCC(=O)O)[C@H]1CC[C@H]2[C@@H]3CC[C@@H]4C[C@H](O)CC[C@]4(C)[C@H]3C[C@H](O)[C@]12C", "note": "[DCA, deoxycholic acid]", "values": [{"measurement": "productivity / body weight gain loss at coccidiosis phase", "setting": "[1]; 1.5 g/kg diet, d 18-23, compared to Em and NE control birds", "value": "prevented productivity loss"}, {"measurement": "productivity / body weight gain loss at NE phase", "setting": "[1]; 1.5 g/kg diet, d 23-26, compared to NE control birds", "value": "prevented productivity loss"}, {"measurement": "growth performance on body weight gain and feed efficiency before infection", "setting": "[1]; 1.5 g/kg diet, during 1-14 and 14-18 days of age, compared to birds fed other diets", "value": "promoted bird growth performance on body weight gain (FIG. 9A) and feed efficiency"}, {"measurement": "inhibition of C. perfringens growth", "setting": "[2]; 0.4 mM, TSB, overnight, anaerobic, OD600", "value": 87, "unit": "%"}, {"measurement": "NE-induced intestinal inflammation and histopathology score", "setting": "[3]; 1.5 g/kg diet, upper ileum, H&E, vs NE control birds", "value": "significantly attenuated"}, {"measurement": "growth performance on body weight gain", "setting": "[4]", "value": "promoted bird growth performance on body weight gain"}, {"measurement": "block of C. perfringens 16S mRNA accumulation", "setting": "[5]", "value": 97, "unit": "%"}, {"measurement": "block of C. perfringens Cpb mRNA accumulation", "setting": "[5]", "value": 61, "unit": "%"}, {"measurement": "block of C. perfringens Virx mRNA accumulation", "setting": "[5]", "value": 61, "unit": "%"}, {"measurement": "C. jejuni colonization level in ceca", "setting": "[6]; 2 days PI", "value": 0, "unit": "CFU/g"}, {"measurement": "C. jejuni colonization level in ceca", "setting": "[6]; 7 days PI", "value": "9.0×10^2 CFU/g"}, {"measurement": "C. jejuni colonization level in ceca", "setting": "[6]; 14 days PI", "value": 0, "unit": "CFU/g"}, {"measurement": "Atp6vg1 mRNA accumulation change compared to control diet", "setting": "[7]", "value": "+40%"}, {"measurement": "Ptgs2 mRNA accumulation change compared to control diet", "setting": "[7]", "value": "+92%"}, {"measurement": "attenuation of NE-induced Infγ mRNA accumulation", "setting": "[8]", "value": 51, "unit": "%"}, {"measurement": "attenuation of NE-induced Mmp9 mRNA accumulation", "setting": "[8]", "value": 66, "unit": "%"}, {"measurement": "attenuation of NE-induced Tnfα mRNA accumulation", "setting": "[8]", "value": 82, "unit": "%"}, {"measurement": "effect on C. jejuni growth", "setting": "[9]", "value": "slightly enhanced but not inhibit C. jejuni growth"}, {"measurement": "C. jejuni growth, OD600", "setting": "[9]", "value": 0.213}, {"measurement": "ileal luminal C. perfringens load", "setting": "[10]", "value": "not significantly different from NE control birds"}, {"measurement": "accumulative feed conversion ratio improvement compared to control diet", "setting": "[11]", "value": 16.6, "unit": "%"}, {"measurement": "body weight gain increase compared to control diet", "setting": "[11]; at 28 days of age", "value": 11.9, "unit": "%"}, {"measurement": "body weight gain", "setting": "[11]; at 28 days of age, control diet 2.86", "value": 3.20, "unit": "lb"}, {"measurement": "accumulative feed conversion ratio", "setting": "[11]; control diet 1.81, lower value means better feed efficiency", "value": 1.51}]}, {"smiles": "C[C@H](CCC(=O)NCCS(=O)(=O)O)[C@H]1CC[C@H]2[C@@H]3[C@H](O)C[C@@H]4C[C@H](O)CC[C@]4(C)[C@H]3C[C@H](O)[C@]12C", "note": "[TCA, taurocholic acid, reference compound]", "values": [{"measurement": "inhibition of C. perfringens growth", "setting": "[2]", "value": "failed to prevent its growth"}, {"measurement": "effect on C. jejuni growth", "setting": "[9]", "value": "failed to inhibit C. jejuni growth"}, {"measurement": "C. jejuni growth, OD600", "setting": "[9]", "value": 0.197}]}, {"smiles": "C[C@H](CCC(=O)O)[C@H]1CC[C@H]2[C@@H]3[C@H](O)C[C@@H]4C[C@H](O)CC[C@]4(C)[C@H]3C[C@H](O)[C@]12C", "note": "[CA, cholic acid]", "values": [{"measurement": "productivity / body weight gain loss at NE phase", "setting": "[1]; in vivo", "value": "attenuated body weight gain loss"}, {"measurement": "productivity / body weight gain loss at coccidiosis phase", "setting": "[1]; in vivo", "value": "failed"}, {"measurement": "inhibition at 1000 µM", "setting": "[2]; Clostridium perfringens, 1 mM, read-out: inhibition of C. perfringens growth", "value": 30, "unit": "%"}, {"measurement": "NE-induced intestinal inflammation and histopathology score", "setting": "[3]; in vivo", "value": "reduces bird NE intestinal inflammation"}, {"measurement": "effect on C. jejuni growth", "setting": "[9]", "value": "failed to inhibit C. jejuni growth"}, {"measurement": "C. jejuni growth, OD600", "setting": "[9]", "value": 0.19}]}]}
